{"source": "patent US4659691A", "about": "“Novel cyclic Hexapeptide LHRH antagonists” (Merck & Co., Inc., priority 1985, dated 1987)", "system": "rat pituitary cells", "assay": "Isolated rat pituitary cell culture system: antagonism of LH-RH-stimulated LH release", "type": "cell-based", "description": "Cyclic hexapeptides of the present invention are evaluated as antagonists of LH-RH in an in vitro pituitary cell culture system. This assay system is described in Vale and Brant, Methods Enzymol, 37, 82 (1975), hereby incorporated by reference for this purpose.\nFor purposes of illustration, the data for cyclo-[Tyr-D-Trp-Leu-Arg-Trp-Pro] (5) in this assay are presented.\nAt a dose range of 10^-5 to 10^-9 M, compound 5 was tested in combination with a single dose of LHRH (luteinizing hormone release hormone) on rat pituitary cells in vitro for 60 minutes.", "note": "Where a SMILES comes first, the peptide text is derived from it. [ ]: non-standard residue; d: D form.", "data": [{"smiles": "CC(C)C[C@@H]1NC(=O)[C@@H](Cc2c[nH]c3ccccc23)NC(=O)[C@H](Cc2ccc(O)cc2)NC(=O)[C@@H]2CCCN2C(=O)[C@H](Cc2c[nH]c3ccccc23)NC(=O)[C@H](CCCNC(=N)N)NC1=O", "note": "[Compound 5, cyclo-(Tyr-D-Trp-Leu-Arg-Trp-Pro)] (cyclo(LRWPY[dW]))", "values": [{"measurement": "reduction of LH release", "setting": "all lower doses of compound 5 (below 10^-5 M) in the presence of 5×10^-7, 10^-7, 5×10^-8 and 10^-8 M LHRH", "value": "essentially ineffective"}, {"measurement": "antagonism to LHRH", "setting": "compound 5 at 10^-5 M, LHRH at 10^-6, 5×10^-7, 5×10^-8, 10^-8, 5×10^-9, 10^-9 and 5×10^-10 M, 60 minutes", "value": "significantly antagonistic"}, {"measurement": "reduction of LH release", "setting": "compound 5 at 10^-7, 10^-8 and 10^-9 M in the presence of 10^-6 M LHRH, 60 minutes", "value": "significantly reduced LH release"}, {"measurement": "effect on LH release (compound alone)", "setting": "compound 5 at 10^-7 M, no LHRH", "value": "does not affect LH release"}, {"measurement": "overall conclusion on LHRH antagonism", "setting": "greatest antagonistic effect at lower doses of LHRH", "value": "antagonistic to LHRH"}, {"measurement": "inhibition of LH release, dose relation", "setting": "in the presence of 5×10^-9, 10^-9 and 5×10^-10 M LHRH, greatest antagonism at 10^-9 M LHRH", "value": "significant dose related inhibition"}]}]}
